Data: ChEMBL document CHEMBL4665654, “Design, synthesis and evaluation of antiproliferative activity of fluorinated betulinic acid” (Bioorg Med Chem, 2019)
Active and inactive are the calls of the source. No cut-off for these calls is given here.

How the values were obtained:
[1] = test system: MDA-MB-231; experiment: Antiproliferative activity against human MDA-MB-231 cells assessed as cell growth inhibition after 72 hrs by sulforhodamine B assay; type: functional, cell-based; settings: MDA-MB-231, 72 h
[2] = test system: MCF7; experiment: Antiproliferative activity against human MCF7 cells assessed as cell growth inhibition after 72 hrs by sulforhodamine B assay; type: functional, cell-based; settings: MCF7, 72 h
[3] = Antiproliferative activity against human KB-VIN cells assessed as cell growth inhibition after 72 hrs by sulforhodamine B assay; type: functional, cell-based; settings: KBVIN
[4] = test system: A549; experiment: Antiproliferative activity against human A549 cells assessed as cell growth inhibition after 72 hrs by sulforhodamine B assay; type: functional, cell-based; settings: A549, 72 h
[5] = test system: KB; experiment: Antiproliferative activity against human KB cells assessed as cell growth inhibition after 72 hrs by sulforhodamine B assay; type: functional, cell-based
[6] = biological target: T1, DNA topoisomerase 1 (Homo sapiens) (UniProt P11387); experiment: Inhibition of recombinant human topoisomerase 1 assessed as decrease in relaxation/nicking of supercoiled DNA using supercoiled DNA as substrate at 10 uM after 1 hr by ethidium bromide staining based agarose gel electrophoresis analysis
T1 sequence (whole entry): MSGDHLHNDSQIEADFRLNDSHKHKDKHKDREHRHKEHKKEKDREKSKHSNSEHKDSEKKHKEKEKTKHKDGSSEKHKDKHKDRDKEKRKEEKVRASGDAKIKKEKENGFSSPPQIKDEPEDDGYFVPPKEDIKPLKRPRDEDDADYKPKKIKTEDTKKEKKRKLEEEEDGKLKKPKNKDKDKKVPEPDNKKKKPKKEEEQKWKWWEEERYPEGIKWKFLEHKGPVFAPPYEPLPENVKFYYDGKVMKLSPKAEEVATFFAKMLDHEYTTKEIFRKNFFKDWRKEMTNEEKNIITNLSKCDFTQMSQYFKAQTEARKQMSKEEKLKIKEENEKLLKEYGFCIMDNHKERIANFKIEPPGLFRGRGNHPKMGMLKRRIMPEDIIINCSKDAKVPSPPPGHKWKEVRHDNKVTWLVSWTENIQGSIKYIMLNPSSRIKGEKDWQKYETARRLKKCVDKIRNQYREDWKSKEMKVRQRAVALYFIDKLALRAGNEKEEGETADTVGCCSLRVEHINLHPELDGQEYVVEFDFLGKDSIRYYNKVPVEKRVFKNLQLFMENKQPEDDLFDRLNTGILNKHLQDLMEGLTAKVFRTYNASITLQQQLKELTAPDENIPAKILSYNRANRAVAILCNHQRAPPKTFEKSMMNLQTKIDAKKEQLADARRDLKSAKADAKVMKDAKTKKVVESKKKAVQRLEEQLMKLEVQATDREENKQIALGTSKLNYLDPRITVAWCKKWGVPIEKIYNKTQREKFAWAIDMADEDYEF

[7] = biological target: DNA topoisomerase 2-alpha (Homo sapiens) (UniProt P11388); experiment: Inhibition of recombinant human topoisomerase-2alpha assessed as decrease in relaxation/nicking of kinetoplast DNA using kDNA as substrate at 100 uM after 15 mins by ethidium bromide staining based agarose gel electrophoresis analysis
[8] = biological target: DNA topoisomerase 2-alpha (Homo sapiens) (UniProt P11388); experiment: Inhibition of topoisomerase-2alpha in human MCF7 cells nuclear extract assessed as decrease in relaxation/nicking of kinetoplast DNA using kDNA as substrate at 40 uM after 15 mins by ethidium bromide staining based agarose gel electrophoresis analysis; type: subcellular; settings: Nucleus
[9] = test system: MCF7; experiment: Induction of apoptosis in human MCF7 cells at 40 uM incubated for 24 to 72 hrs by Annexin V-FITC/propidium iodide staining-based flow cytometric analysis; type: functional, cell-based; settings: time hrs 24-72
[10] = test system: MCF7; experiment: Inhibition of colony formation in human MCF7 cells at 10 to 40 uM of compound exposure followed by compound washout and subsequent incubation for 3 weeks by crystal violet staining based assay; type: functional, cell-based; settings: dose microM 10-40
[11] = biological target: T1, DNA topoisomerase 1 (Homo sapiens); experiment: Inhibition of recombinant human topoisomerase 1 assessed as decrease in relaxation/nicking of supercoiled DNA using supercoiled DNA as substrate at 30 uM after 1 hr by ethidium bromide staining based agarose gel electrophoresis analysis
[12] = biological target: T1, DNA topoisomerase 1 (Homo sapiens); experiment: Inhibition of topoisomerase 1 in human MCF7 cells nuclear extract assessed as decrease in relaxation/nicking of supercoiled DNA using supercoiled DNA as substrate at 40 uM after 1 hr by ethidium bromide staining based agarose gel electrophoresis analysis; type: subcellular; settings: Nucleus

Sequence of DNA topoisomerase 2-alpha (Homo sapiens) (P11388 whole entry): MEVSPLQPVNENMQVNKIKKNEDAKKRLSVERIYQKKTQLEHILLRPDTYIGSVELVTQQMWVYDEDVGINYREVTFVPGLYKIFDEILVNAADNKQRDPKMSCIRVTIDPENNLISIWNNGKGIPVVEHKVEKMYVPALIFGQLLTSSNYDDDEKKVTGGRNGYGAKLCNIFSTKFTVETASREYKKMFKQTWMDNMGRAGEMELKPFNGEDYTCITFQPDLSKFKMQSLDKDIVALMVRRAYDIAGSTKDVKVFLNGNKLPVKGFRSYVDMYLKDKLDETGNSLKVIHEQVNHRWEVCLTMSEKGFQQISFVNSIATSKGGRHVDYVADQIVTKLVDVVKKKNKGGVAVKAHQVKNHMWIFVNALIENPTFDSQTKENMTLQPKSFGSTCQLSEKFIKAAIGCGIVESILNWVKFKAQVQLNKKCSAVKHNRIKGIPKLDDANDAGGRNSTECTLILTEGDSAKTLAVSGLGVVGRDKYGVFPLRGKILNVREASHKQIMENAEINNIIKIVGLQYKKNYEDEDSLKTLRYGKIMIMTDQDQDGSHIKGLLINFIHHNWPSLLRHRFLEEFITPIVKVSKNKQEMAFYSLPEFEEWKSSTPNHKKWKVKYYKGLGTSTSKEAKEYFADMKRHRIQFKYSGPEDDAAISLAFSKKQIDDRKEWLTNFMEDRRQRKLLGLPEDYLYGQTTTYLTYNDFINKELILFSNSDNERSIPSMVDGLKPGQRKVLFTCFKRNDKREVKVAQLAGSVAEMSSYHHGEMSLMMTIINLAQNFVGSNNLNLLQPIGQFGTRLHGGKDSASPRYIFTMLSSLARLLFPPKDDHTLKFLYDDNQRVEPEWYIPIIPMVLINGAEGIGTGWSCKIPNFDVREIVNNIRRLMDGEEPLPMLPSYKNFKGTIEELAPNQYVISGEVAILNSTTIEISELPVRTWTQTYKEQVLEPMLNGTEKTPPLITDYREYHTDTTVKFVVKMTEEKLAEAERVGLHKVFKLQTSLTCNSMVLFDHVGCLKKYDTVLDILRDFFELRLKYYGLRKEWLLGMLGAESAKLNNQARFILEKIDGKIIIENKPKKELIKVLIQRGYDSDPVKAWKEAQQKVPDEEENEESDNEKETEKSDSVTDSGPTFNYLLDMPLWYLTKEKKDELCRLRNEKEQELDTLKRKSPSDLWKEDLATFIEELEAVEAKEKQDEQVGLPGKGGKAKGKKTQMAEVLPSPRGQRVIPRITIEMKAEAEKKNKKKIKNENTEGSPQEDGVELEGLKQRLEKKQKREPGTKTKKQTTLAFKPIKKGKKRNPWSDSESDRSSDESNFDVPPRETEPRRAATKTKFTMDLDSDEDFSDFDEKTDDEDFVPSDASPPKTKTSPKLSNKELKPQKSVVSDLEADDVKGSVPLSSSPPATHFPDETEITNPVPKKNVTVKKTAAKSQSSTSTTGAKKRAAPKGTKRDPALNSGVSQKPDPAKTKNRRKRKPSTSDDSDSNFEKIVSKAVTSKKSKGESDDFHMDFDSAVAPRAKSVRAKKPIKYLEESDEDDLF

SMILES: C=C(C)[C@@H]1CC[C@]2(C(=O)OC)CC[C@]3(C)[C@H](CC[C@@H]4[C@@]5(C)CC[C@@](O)(C(F)(F)F)C(C)(C)[C@@H]5CC[C@]43C)[C@@H]12
- IC50 [1]: > 10 µM
- IC50 [2]: > 10 µM
- IC50 [3]: > 10 µM
- IC50 [4]: > 10 µM
- IC50 [5]: > 10 µM

SMILES: C=C(C)[C@@H]1CC[C@]2(C(=O)O)CC[C@]3(C)[C@H](CC[C@@H]4[C@@]5(C)C[C@H](F)[C@H](O)C(C)(C)[C@@H]5CC[C@]43C)[C@@H]12
- IC50 [1]: 12.4 µM
- IC50 [2]: 14.4 µM
- IC50 [3]: 6 µM
- IC50 [4]: 4.5 µM
- IC50 [5]: 6.1 µM

SMILES: C=C(C)[C@@H]1CC[C@]2(C(=O)OC)CC[C@]3(C)[C@H](CC[C@@H]4[C@@]5(C)CC(F)C(=O)C(C)(C)[C@@H]5CC[C@]43C)[C@@H]12 (some centres not stated)
- IC50 [1]: > 10 µM
- IC50 [2]: > 10 µM
- IC50 [3]: > 10 µM
- IC50 [4]: > 10 µM
- IC50 [5]: > 10 µM

SMILES: C=C(C)[C@@H]1CC[C@]2(C(=O)O)CC[C@]3(C)[C@H](CC[C@@H]4[C@@]5(C)CC[C@@](O)(C(F)(F)F)C(C)(C)[C@@H]5CC[C@]43C)[C@@H]12
- IC50 [1]: > 10 µM
- IC50 [2]: 7.8 µM
- IC50 [3]: 6 µM
- IC50 [4]: 5.4 µM
- IC50 [5]: 5.9 µM

SMILES: C=C(C)[C@@H]1CC[C@]2(C(=O)OC)CC[C@]3(C)[C@H](CC[C@@H]4[C@@]5(C)CC(F)[C@H](OC(=O)CC(C)(C)C(=O)O)C(C)(C)[C@@H]5CC[C@]43C)[C@@H]12 (some centres not stated)
- IC50 [1]: > 10 µM
- IC50 [2]: > 10 µM
- IC50 [3]: > 10 µM
- IC50 [4]: > 10 µM
- IC50 [5]: > 10 µM

SMILES: C=C(C)[C@@H]1CC[C@]2(C(=O)OC)CC[C@]3(C)[C@H](CC[C@@H]4[C@@]5(C)CC(F)[C@H](O)C(C)(C)[C@@H]5CC[C@]43C)[C@@H]12 (mixture of isomers)
- IC50 [1]: > 10 µM
- IC50 [2]: > 10 µM
- IC50 [3]: > 10 µM
- IC50 [4]: > 10 µM
- IC50 [5]: > 10 µM

SMILES: C=C(C)[C@@H]1CC[C@]2(C(=O)OCc3ccc(Cl)cc3)CC[C@]3(C)[C@H](CC[C@@H]4[C@@]5(C)C[C@@H](F)C(=O)C(C)(C)[C@@H]5CC[C@]43C)[C@@H]12
- IC50 [1]: > 40 µM
- IC50 [2]: > 40 µM
- IC50 [3]: > 40 µM
- IC50 [4]: > 40 µM
- IC50 [5]: > 40 µM

SMILES: C=C(C)[C@@H]1CC[C@]2(C(=O)O)CC[C@]3(C)[C@H](CC[C@@H]4[C@@]5(C)CC[C@H](O)C(C)(C)[C@@H]5CC[C@]43C)[C@@H]12 [BETULINIC ACID]
- IC50 [1]: > 40 µM
- inhibition [6]: inactive
- inhibition [7]: inactive
- IC50 [2]: > 40 µM
- inhibition [8]: inactive
- IC50 [3]: 30.7 µM
- IC50 [4]: 29.5 µM
- Activity [9]: Active
- inhibition [10]: Active
- inhibition [11]: Active
- inhibition [12]: inactive
- IC50 [5]: 28.7 µM
